According to ChEMBL document CHEMBL2396547, “Anticancer effects of a novel class rosin-derivatives with different mechanisms” (Bioorg Med Chem Lett, 2013):
Calls of active or inactive are those of the source. The calls are words filed in the database; no cut-off is given here.

Tests used:
EJ [1] = assay: Cytotoxicity against human EJ cells assessed as cell death up to 20 uM measured within 1 hr by MTT assay; type: functional, cell-based
Jurkat = assay: Cytotoxicity against human Jurkat cells assessed as growth inhibition after 72 hrs by MTT assay; type: functional, cell-based
HeLa = assay: Cytotoxicity against human HeLa cells assessed as growth inhibition after 72 hrs by MTT assay; type: functional, cell-based
EJ [2] = assay: Cytotoxicity against human EJ cells assessed as growth inhibition after 72 hrs by MTT assay; type: functional, cell-based
5637 = assay: Cytotoxicity against human 5637 cells assessed as growth inhibition after 72 hrs by MTT assay; type: functional, cell-based; conditions: Homo sapiens, 5637, 72 h
PC-3 = assay: Cytotoxicity against human PC3 cells assessed as growth inhibition after 72 hrs by MTT assay; type: functional, cell-based; conditions: PC-3, 72 h
[3] = Hemolytic activity in mouse RBC at 100 uM after 1 hr by ELISA relative to control; type: ADME, cell-based, Erythrocyte; conditions: for Activity: erythrocyte, 1 h, 100 µM; for hemolysis at 1 h, 100 µM: mouse red blood cells, read-out: Activity
EJ [4] = assay: Induction of apoptosis in human EJ cells assessed as decrease in procaspase-3 level at 5 uM after 24 hrs by Western blot analysis; type: functional, cell-based
EJ [5] = assay: Induction of apoptosis in human EJ cells assessed as caspase-8 activation at 5 uM after 24 hrs by Western blot analysis; type: functional, cell-based
EJ [6] = assay: Induction of apoptosis in human EJ cells assessed as decrease in procaspase-9 level at 5 uM after 24 hrs by Western blot analysis; type: functional, cell-based
EJ [7] = assay: Induction of apoptosis in human EJ cells assessed as increase in cytosolic cytochrome c level at 5 uM after 24 hrs by Western blot analysis; type: functional, cell-based
EJ [8] = assay: Induction of apoptosis in human EJ cells assessed as viable cells at 5 uM after 24 hrs by annexin V-FITC/propidium iodide staining-based flow cytometric analysis (reference value: 99.6%); type: functional; conditions: read-out: Activity
EJ [9] = assay: Induction of apoptosis in human EJ cells assessed as early apoptotic cells at 5 uM after 24 hrs by annexin V-FITC/propidium iodide staining-based flow cytometric analysis (reference value: 0.01 to 0.04%); type: functional
EJ [10] = assay: Induction of apoptosis in human EJ cells assessed as late apoptotic cells at 5 uM after 24 hrs by annexin V-FITC/propidium iodide staining-based flow cytometric analysis (reference value: 0.08 to 0.22%); type: functional
EJ [11] = assay: Induction of apoptosis in human EJ cells assessed as necrotic cells at 5 uM after 24 hrs by annexin V-FITC/propidium iodide staining-based flow cytometric analysis (reference value: 0.28 to 0.30%); type: functional
EJ [12] = assay: Induction of apoptosis in human EJ cells assessed as nuclear condensation at 5 uM after 24 hrs by Hoechst 33342 staining-based confocal microscopic analysis; type: functional, cell-based
EJ [13] = assay: Induction of apoptosis in human EJ cells assessed as formation of apoptotic bodies at 5 uM after 24 hrs by Hoechst 33342 staining-based confocal microscopic analysis; type: functional, cell-based
EJ [14] = assay: Induction of necrosis in human EJ cells assessed as disruption of membrane integrity at 15 uM after 1 hr by propidium iodide uptake assay; type: functional, cell-based
EJ [15] = assay: Cytotoxicity against human EJ cells assessed as cell death at 10 to 20 uM after 1 hr by MTT assay; type: functional, cell-based
EJ [16] = assay: Induction of apoptosis in human EJ cells assessed as disruption of mitochondria with frequent fusion between great number of vaculoes at 5 uM after 24 hrs by transmission electron microscopic analysis; type: functional, cell-based
EJ [17] = assay: Induction of apoptosis in human EJ cells assessed as nuclear fragmentation at 5 uM after 24 hrs by transmission electron microscopic analysis; type: functional, cell-based
EJ [18] = assay: Induction of apoptosis in human EJ cells assessed as peripheral nuclear chromatin condensation at 5 uM after 24 hrs by transmission electron microscopic analysis; type: functional, cell-based
EJ [19] = assay: Induction of apoptosis in human EJ cells assessed as cristae swelling at 5 uM after 24 hrs by transmission electron microscopic analysis; type: functional, cell-based
EJ [20] = assay: Induction of apoptosis in human EJ cells assessed as mitochondrial matrix condensation at 5 uM after 24 hrs by transmission electron microscopic analysis; type: functional, cell-based
EJ [21] = assay: Induction of necrosis in human EJ cells assessed as disruption of membrane integrity measuring loss of microvilli at 15 uM after 1 hr by scanning electron microscopic analysis; type: functional, cell-based
EJ [22] = assay: Induction of necrosis in human EJ cells assessed as disruption of membrane integrity measuring pore formation at 15 uM after 1 hr by scanning electron microscopic analysis; type: functional, cell-based
EJ [23] = assay: Cytotoxicity against human EJ cells assessed as cell death at 5 to 20 uM after 24 hrs by MTT assay; type: functional, cell-based

Row | Structure (SMILES) | IC50 (Jurkat) | IC50 (HeLa) | IC50 (EJ [2]) | IC50 5637 | IC50 (PC-3) | Activity (EJ [4]) | Activity (EJ [5]) | Activity (EJ [6]) | Activity (EJ [7]) | viability at 5 µM (EJ [8]) | Activity (EJ [9]) | Activity (EJ [10]) | Activity (EJ [11]) | Activity (EJ [12]) | Activity (EJ [13]) | Activity (EJ [14]) | also measured
1 | C=C[C@H]1CN2CC[C@H]1C[C@H]2[C@H](O)c1ccnc2ccc(OC)cc12 [QUININE] | > 50 µM | > 50 µM | > 50 µM | > 50 µM | > 50 µM |  |  |  |  |  |  |  |  |  |  |  | Activity (EJ [1]): inactive
2 | C=C[C@H]1C[N@@]2CC[C@H]1C[C@H]2[C@H](O)c1ccnc2ccc(OC)cc12 [QUININE] |  |  |  |  |  |  |  |  |  |  |  |  |  |  |  |  | Activity [3]: Non-toxic
3 | CC(C)c1ccc2c(c1)CC[C@H]1[C@](C)(CN)CCC[C@]21C | 4.85 µM | 7.68 µM | 4.82 µM | 8.7 µM | 7.88 µM | inactive | inactive | Active | Active | 6.16% | 87.9% | 5.85% | 0.13% | Active | Active | Active | hemolysis at 1 h, 100 µM [3]: 17.9%; Activity (EJ [15]): Active
4 | CC(C)c1ccc2c(c1)CC[C@H]1[C@](C)(CNC(=S)N[C@H]3CCCC[C@@H]3N(C)C)CCC[C@]21C | 4.32 µM | 5.12 µM | 4.19 µM | 4.62 µM | 5.53 µM |  |  | Active | Active | 0.32% | 92.2% | 7.45% | 0% | Active | Active | Active | 
5 | CC(C)c1ccc2c(c1)CC[C@H]1[C@](C)(CNC(=S)N[C@H]3CCCC[C@@H]3N)CCC[C@]21C | 3.48 µM | 3.73 µM | 3.05 µM | 3.14 µM | 3.52 µM | inactive | inactive | Active | Active | 8.8% | 81.9% | 9.06% | 0.25% | Active | Active | Active | Activity (EJ [16]): Active; Activity (EJ [17]): Active; Activity (EJ [18]): Active; Activity (EJ [19]): Active; Activity (EJ [20]): Active; Activity (EJ [21]): Active; Activity (EJ [22]): Active; hemolysis at 1 h, 100 µM [3]: 74.4%; Activity (EJ [15]): Active
6 | C=CC1CN2CCC1CC2[C@H](NC(=S)NC[C@]1(C)CCC[C@]2(C)c3ccc(C(C)C)cc3CC[C@@H]12)c1ccnc2ccc(OC)cc12 (stereo partly drawn) | 2.2 µM | 3.21 µM | 2.07 µM | 2.64 µM | 2.98 µM | inactive | inactive | Active | Active | 6.83% | 89% | 4.01% | 0.12% | Active | Active | inactive | Activity (EJ [16]): Active; Activity (EJ [17]): Active; Activity (EJ [18]): Active; Activity (EJ [19]): Active; Activity (EJ [20]): Active; Activity (EJ [21]): inactive; Activity (EJ [22]): inactive; Activity (EJ [23]): Active; Activity [3]: Non-toxic; Activity (EJ [1]): inactive
7 | CC(C)c1ccc2c(c1)CC[C@H]1[C@](C)(C(=O)O)CCC[C@]21C [DEHYDROABIETIC ACID] | 25.5 µM | 28.4 µM | 25.1 µM | 27.6 µM | 28.1 µM |  |  |  |  |  |  |  |  |  |  |  | 
8 | CC(C)c1ccc2c(c1)CC[C@H]1[C@](C)(CNC(=S)N[C@H]3CCCC[C@@H]3N3CCCC3)CCC[C@]21C | 4.5 µM | 5.76 µM | 4.29 µM | 5.18 µM | 6.57 µM |  |  | Active | Active | 0.35% | 95.1% | 4.53% | 0% | Active | Active | Active | 
9 | CC(C)c1ccc2c(c1)CC[C@H]1[C@](C)(CNC(=S)N[C@@H]3CCCC[C@H]3N3CCCC3)CCC[C@]21C | 3.39 µM | 4.47 µM | 3.44 µM | 3.59 µM | 4.7 µM |  |  | Active | Active | 0.64% | 94.6% | 4.73% | 0.01% | Active | Active | Active | 
